Measured values taken from US20190231751A1, “TREATMENT OF FIBROTIC DISORDERS WITH JUN N-TERMINAL KINASE INHIBITORS” (Imago Pharmaceuticals, Inc., priority 2016, published 2019).

Tests used:
Assay type in all cases: biochemical
JNK2 = JNK2 (Homo sapiens, UniProt P45984); assay: In vitro JNK2 inhibition (Table 1)
Protocol: (§1) In vitro assays for the determination of JNK activities are known in the art and exemplary assay formats are described herein.
(§2) IC50 values in Table 1 were determined using the procedures as described in U.S. Pat. No. 8,450,353.

JNK3 = JNK3 (Homo sapiens, UniProt P53779); assay: In vitro JNK3 inhibition (Table 1)
Protocol: as §1, §2

JNK1 = JNK1 (Homo sapiens, UniProt P45983); assay: In vitro JNK1 inhibition (Table 1)
Protocol: as §1, §2

Sequence of JNK1 (P45983 whole entry, species assumed): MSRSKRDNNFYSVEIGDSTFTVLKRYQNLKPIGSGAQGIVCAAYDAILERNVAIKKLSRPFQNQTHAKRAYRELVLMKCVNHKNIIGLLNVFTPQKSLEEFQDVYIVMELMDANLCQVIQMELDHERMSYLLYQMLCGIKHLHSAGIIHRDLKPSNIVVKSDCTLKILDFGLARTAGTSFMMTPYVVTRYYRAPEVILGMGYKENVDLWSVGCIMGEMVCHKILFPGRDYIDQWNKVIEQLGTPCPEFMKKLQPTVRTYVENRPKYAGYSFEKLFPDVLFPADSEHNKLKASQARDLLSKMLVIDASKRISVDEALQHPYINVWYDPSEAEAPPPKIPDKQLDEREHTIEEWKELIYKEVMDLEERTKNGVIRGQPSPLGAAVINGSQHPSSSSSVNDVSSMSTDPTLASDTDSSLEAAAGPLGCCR
Sequence of JNK2 (P45984 whole entry, species assumed): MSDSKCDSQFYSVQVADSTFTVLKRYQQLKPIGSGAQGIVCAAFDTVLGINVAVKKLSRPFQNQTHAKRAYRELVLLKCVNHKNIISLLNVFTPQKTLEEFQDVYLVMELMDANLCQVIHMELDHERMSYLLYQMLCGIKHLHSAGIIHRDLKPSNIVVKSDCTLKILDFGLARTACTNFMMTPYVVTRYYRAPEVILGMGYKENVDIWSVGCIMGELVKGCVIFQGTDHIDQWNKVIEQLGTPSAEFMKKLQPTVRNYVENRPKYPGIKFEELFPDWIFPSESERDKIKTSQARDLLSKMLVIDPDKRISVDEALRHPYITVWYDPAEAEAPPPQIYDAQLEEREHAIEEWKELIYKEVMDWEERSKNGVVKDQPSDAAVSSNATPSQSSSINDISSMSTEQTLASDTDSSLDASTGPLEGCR
Sequence of JNK3 (P53779 whole entry, species assumed): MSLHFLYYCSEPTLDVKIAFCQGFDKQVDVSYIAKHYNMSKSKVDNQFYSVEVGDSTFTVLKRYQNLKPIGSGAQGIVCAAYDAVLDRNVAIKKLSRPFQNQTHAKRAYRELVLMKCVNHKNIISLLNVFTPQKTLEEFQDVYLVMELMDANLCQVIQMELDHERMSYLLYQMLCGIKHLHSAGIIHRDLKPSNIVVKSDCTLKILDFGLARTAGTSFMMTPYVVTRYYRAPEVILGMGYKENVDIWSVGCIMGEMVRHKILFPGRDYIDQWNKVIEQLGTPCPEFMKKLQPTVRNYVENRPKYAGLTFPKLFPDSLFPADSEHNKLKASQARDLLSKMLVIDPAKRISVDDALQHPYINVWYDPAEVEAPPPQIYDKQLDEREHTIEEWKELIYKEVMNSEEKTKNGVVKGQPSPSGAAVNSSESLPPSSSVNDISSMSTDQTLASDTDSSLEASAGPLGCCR

SMILES | IC50 (JNK2) [nM] | IC50 (JNK3) [nM] | IC50 (JNK1) [nM]
O=C(Cn1c(=O)ccc2cc(C(F)(F)F)c(F)cc21)Nc1scc(Br)c1-c1ncn[nH]1 [N-(4-bromo-3-(1H-1,2,4-triazol-5-yl)thiophen-2-yl)-2-(7-fluoro-2-oxo-6-(trifluoromethyl)quinolin-1(2H)-yl)acetamide] | < 100 | < 100 | < 100
O=C(Cn1c(=O)ccc2ccc(F)cc21)Nc1scc(Br)c1-c1ncn[nH]1 [N-(4-bromo-3-(1H-1,2,4-triazol-5-yl)thiophen-2-yl)-2-(7-fluoro-2-oxoquinolin-1(2H)-yl)acetamide] | < 100 | < 100 | < 100
O=C(Cc1ccc(F)c2cnccc12)Nc1scc(Br)c1-c1ncn[nH]1 [N-(4-bromo-3-(1H-1,2,4-triazol-5-yl)thiophen-2-yl)-2-(8-fluoroisoquinolin-5-yl)acetamide] | < 100 | < 100 | < 100
O=C(Cc1cccc2cnccc12)Nc1scc(Br)c1-c1ncn[nH]1 [N-(4-bromo-3-(1H-1,2,4-triazol-5-yl)thiophen-2-yl)-2-(isoquinolin-5-yl)acetamide] | < 100 | < 100 | < 100
O=C(Cc1cccc2ncccc12)Nc1scc(Br)c1-c1ncn[nH]1 [N-(4-bromo-3-(1H-1,2,4-triazol-5-yl)thiophen-2-yl)-2-(quinolin-5-yl)acetamide] | < 100 | < 100 | < 100
O=C(Cn1c(=O)ccc2cc(C(F)(F)F)ccc21)Nc1scc(Br)c1-n1nccn1 [N-(4-bromo-3-(2H-1,2,3-triazol-2-yl)thiophen-2-yl)-2-(2-oxo-6-(trifluoromethyl)quinolin-1(2H)-yl)acetamide] | < 100 | < 100 | 100 to 10000
O=C(CN1C(=O)CCc2ncccc21)Nc1scc(Br)c1-c1ncco1 [N-(4-bromo-3-(oxazol-2-yl)thiophen-2-yl)-2-(2-oxo-3,4-dihydro-1,5-naphthyridin-1(2H)-yl)acetamide] | < 100 | < 100 | < 100
CN(C)CCn1cnc(-c2c(Cl)csc2NC(=O)Cn2c(=O)ccc3cc(C(F)(F)F)ccc32)n1 [N-(4-chloro-3-(1-(2-(dimethylamino)ethyl)-1H-1,2,4-triazol-3-yl)thiophen-2-yl)-2-(2-oxo-6-(trifluoromethyl)quinolin-1(2H)-yl)acetamide] | < 100 | < 100 | < 100
CN(C)CCCn1cnc(-c2c(Cl)csc2NC(=O)Cn2c(=O)ccc3cc(C(F)(F)F)ccc32)n1 [N-(4-chloro-3-(1-(3-(dimethylamino)propyl)-1H-1,2,4-triazol-3-yl)thiophen-2-yl)-2-(2-oxo-6-(trifluoromethyl)quinolin-1(2H)-yl)acetamide] | < 100 | < 100 | < 100
O=C(Cn1c(=O)ccc2cc(C(F)(F)F)ccc21)Nc1scc(Cl)c1-c1ncn(CCCN2CCCC2)n1 [N-(4-chloro-3-(1-(3-(pyrrolidin-1-yl)propyl)-1H-1,2,4-triazol-3-yl)thiophen-2-yl)-2-(2-oxo-6-(trifluoromethyl)quinolin-1(2H)-yl)acetamide] | < 100 | < 100 | < 100
O=C(Cn1c(=O)ccc2cc(C(F)(F)F)ccc21)Nc1scc(Cl)c1-c1ncn(CCCN2CCOCC2)n1 [N-(4-chloro-3-(1-(3-morpholinopropyl)-1H-1,2,4-triazol-3-yl)thiophen-2-yl)-2-(2-oxo-6-(trifluoromethyl)quinolin-1(2H)-yl)acetamide] | < 100 | < 100 | < 100
Cn1cnc(-c2c(Cl)csc2NC(=O)CN2C(=O)CCc3ncccc32)n1 [N-(4-chloro-3-(1-methyl-1H-1,2,4-triazol-3-yl)thiophen-2-yl)-2-(2-oxo-3,4-dihydro-1,5-naphthyridin-1(2H)-yl)acetamide] | < 100 | < 100 | < 100
Cn1cnc(-c2c(Cl)csc2NC(=O)Cn2c(=O)ccc3nc(C(F)(F)F)ccc32)n1 [N-(4-chloro-3-(1-methyl-1H-1,2,4-triazol-3-yl)thiophen-2-yl)-2-(2-oxo-6-(trifluoromethyl)-1,5-naphthyridin-1(2H)-yl)acetamide] | < 100 | < 100 | < 100
Cn1cnc(-c2c(Cl)csc2NC(=O)Cn2c(=O)ccc3cnc(C(F)(F)F)cc32)n1 [N-(4-chloro-3-(1-methyl-1H-1,2,4-triazol-3-yl)thiophen-2-yl)-2-(2-oxo-7-(trifluoromethyl)-1,6-naphthyridin-1(2H)-yl)acetamide] | < 100 | < 100 | < 100
Cn1cnc(-c2c(Cl)csc2NC(=O)Cn2c(=O)ccn3nc(C(F)(F)F)cc23)n1 [N-(4-chloro-3-(1-methyl-1H-1,2,4-triazol-3-yl)thiophen-2-yl)-2-(5-oxo-2-(trifluoromethyl)pyrazolo[1,5-a]pyrimidin-4(5H)-yl)acetamide] | < 100 | < 100 | < 100
Cn1cnc(-c2c(Cl)csc2NC(=O)Cn2c(=O)ccn3nccc23)n1 [N-(4-chloro-3-(1-methyl-1H-1,2,4-triazol-3-yl)thiophen-2-yl)-2-(5-oxopyrazolo[1,5-a]pyrimidin-4(5H)-yl)acetamide] | < 100 | < 100 | < 100
O=C(CN1C(=O)CCc2ncccc21)Nc1scc(Cl)c1-c1nc[nH]n1 [N-(4-chloro-3-(1H-1,2,4-triazol-3-yl)thiophen-2-yl)-2-(2-oxo-3,4-dihydro-1,5-naphthyridin-1(2H)-yl)acetamide] | < 100 | < 100 | < 100
O=C(Cn1c(=O)ccc2cc(C(F)(F)F)ccc21)N(CCCN1CCCC1)c1scc(Cl)c1-c1nc[nH]n1 [N-(4-chloro-3-(1H-1,2,4-triazol-3-yl)thiophen-2-yl)-2-(2-oxo-6-(trifluoromethyl)quinolin-1(2H)-yl)-N-(3-(pyrrolidin-1-yl)propyl)acetamide] | 100 to 10000 | 100 to 10000 | 100 to 10000
O=C(Cn1c(=O)ccc2cnc(C(F)(F)F)cc21)Nc1scc(Cl)c1-c1nc[nH]n1 [N-(4-chloro-3-(1H-1,2,4-triazol-3-yl)thiophen-2-yl)-2-(2-oxo-7-(trifluoromethyl)-1,6-naphthyridin-1(2H)-yl)acetamide] | < 100 | < 100 | < 100
N#Cc1ccc2c(ccc(=O)n2CC(=O)Nc2scc(Cl)c2-c2nc[nH]n2)c1 [N-(4-chloro-3-(1H-1,2,4-triazol-3-yl)thiophen-2-yl)-2-(6-cyano-2-oxoquinolin-1(2H)-yl)acetamide] | < 100 | < 100 | < 100
CN(C)CCN(C(=O)Cn1c(=O)ccc2cc(C(F)(F)F)ccc21)c1scc(Cl)c1-c1nc[nH]n1 [N-(4-chloro-3-(1H-1,2,4-triazol-3-yl)thiophen-2-yl)-N-(2-(dimethylamino)ethyl)-2-(2-oxo-6-(trifluoromethyl)quinolin-1(2H)-yl)acetamide] | 100 to 10000 | 100 to 10000 | 100 to 10000
O=C(CN1C(=O)CCc2ccccc21)Nc1scc(Cl)c1-c1ncn[nH]1 [N-(4-chloro-3-(1H-1,2,4-triazol-5-yl)thiophen-2-yl)-2-(2-oxo-3,4-dihydroquinolin-1(2H)-yl)acetamide] | < 100 | < 100 | < 100
O=C(Cn1c(=O)ccc2nc(C(F)(F)F)ccc21)Nc1scc(Cl)c1-c1ncn[nH]1 [N-(4-chloro-3-(1H-1,2,4-triazol-5-yl)thiophen-2-yl)-2-(2-oxo-6-(trifluoromethyl)-1,5-naphthyridin-1(2H)-yl)acetamide] | < 100 | < 100 | < 100
O=C(Cn1c(=O)ccc2cc(C(F)(F)F)ccc21)Nc1scc(Cl)c1-c1ncn[nH]1 [N-(4-chloro-3-(1H-1,2,4-triazol-5-yl)thiophen-2-yl)-2-(2-oxo-6-(trifluoromethyl)quinolin-1(2H)-yl)acetamide] | < 100 | < 100 | < 100
O=C(Cn1c(=O)ccn2nc(C(F)(F)F)cc12)Nc1scc(Cl)c1-c1ncn[nH]1 [N-(4-chloro-3-(1H-1,2,4-triazol-5-yl)thiophen-2-yl)-2-(5-oxo-2-(trifluoromethyl)pyrazolo[1,5-a]pyrimidin-4(5H)-yl)acetamide] | < 100 | < 100 | < 100
O=C(Cn1c(=O)ccn2nccc12)Nc1scc(Cl)c1-c1ncn[nH]1 [N-(4-chloro-3-(1H-1,2,4-triazol-5-yl)thiophen-2-yl)-2-(5-oxopyrazolo[1,5-a]pyrimidin-4(5H)-yl)acetamide] | < 100 | < 100 | < 100
O=C(Cc1cccc2cnccc12)Nc1scc(Cl)c1-c1ncn[nH]1 [N-(4-chloro-3-(1H-1,2,4-triazol-5-yl)thiophen-2-yl)-2-(isoquinolin-5-yl)acetamide] | < 100 | < 100 | < 100
Cc1n[nH]c(-c2c(Cl)csc2NC(=O)CN2C(=O)CCc3ncccc32)n1 [N-(4-chloro-3-(3-methyl-1H-1,2,4-triazol-5-yl)thiophen-2-yl)-2-(2-oxo-3,4-dihydro-1,5-naphthyridin-1(2H)-yl)acetamide] | < 100 | < 100 | < 100
O=C(CN1C(=O)CCc2ncccc21)Nc1scc(Cl)c1-c1nccs1 [N-(4-chloro-3-(thiazol-2-yl)thiophen-2-yl)-2-(2-oxo-3,4-dihydro-1,5-naphthyridin-1(2H)-yl)acetamide] | < 100 | < 100 | < 100
Cn1cnc(-c2c(C#N)csc2NC(=O)CN2C(=O)CCc3ncccc32)n1 [N-(4-cyano-3-(1-methyl-1H-1,2,4-triazol-3-yl)thiophen-2-yl)-2-(2-oxo-3,4-dihydro-1,5-naphthyridin-1(2H)-yl)acetamide] | < 100 | < 100 | < 100
